Data as given in ChEMBL document CHEMBL1131224, “Design and synthesis of cyclic inhibitors of matrix metalloproteinases and TNF-alpha production” (J Med Chem, 1998).

What was measured:
Stromelysin-1 = Stromelysin-1 (Homo sapiens, UniProt P08254); test: Inhibition of MMP-3 (Matrix metalloprotease-3)
[1] = target: Matrix metalloproteinase-9 (Homo sapiens, UniProt P14780); test: Inhibition of MMP-9 (Matrix metalloprotease-9)
Homo sapiens = species on record: Homo sapiens; test: In vitro inhibition for TNF-alpha production from LPS-stimulated human whole blood; assay type: functional
Interstitial collagenase = target: T1, Interstitial collagenase (Homo sapiens, UniProt P03956); test: Inhibition of MMP-1 (Matrix metalloprotease-1)
T1 sequence (P03956 whole entry): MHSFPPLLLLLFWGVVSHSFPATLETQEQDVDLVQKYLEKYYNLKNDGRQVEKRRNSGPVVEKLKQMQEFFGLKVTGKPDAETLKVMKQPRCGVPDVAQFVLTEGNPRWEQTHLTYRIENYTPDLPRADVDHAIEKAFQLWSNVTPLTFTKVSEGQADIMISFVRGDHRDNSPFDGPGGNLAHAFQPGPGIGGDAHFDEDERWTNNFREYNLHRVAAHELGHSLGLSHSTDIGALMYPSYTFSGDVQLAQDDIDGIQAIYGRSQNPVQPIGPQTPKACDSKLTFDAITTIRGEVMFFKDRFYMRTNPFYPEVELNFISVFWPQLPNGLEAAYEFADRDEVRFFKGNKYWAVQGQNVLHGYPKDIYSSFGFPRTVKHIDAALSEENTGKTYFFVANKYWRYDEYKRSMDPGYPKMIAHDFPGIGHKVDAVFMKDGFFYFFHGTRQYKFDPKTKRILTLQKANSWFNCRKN

Sequence of Matrix metalloproteinase-9 (P14780 whole entry): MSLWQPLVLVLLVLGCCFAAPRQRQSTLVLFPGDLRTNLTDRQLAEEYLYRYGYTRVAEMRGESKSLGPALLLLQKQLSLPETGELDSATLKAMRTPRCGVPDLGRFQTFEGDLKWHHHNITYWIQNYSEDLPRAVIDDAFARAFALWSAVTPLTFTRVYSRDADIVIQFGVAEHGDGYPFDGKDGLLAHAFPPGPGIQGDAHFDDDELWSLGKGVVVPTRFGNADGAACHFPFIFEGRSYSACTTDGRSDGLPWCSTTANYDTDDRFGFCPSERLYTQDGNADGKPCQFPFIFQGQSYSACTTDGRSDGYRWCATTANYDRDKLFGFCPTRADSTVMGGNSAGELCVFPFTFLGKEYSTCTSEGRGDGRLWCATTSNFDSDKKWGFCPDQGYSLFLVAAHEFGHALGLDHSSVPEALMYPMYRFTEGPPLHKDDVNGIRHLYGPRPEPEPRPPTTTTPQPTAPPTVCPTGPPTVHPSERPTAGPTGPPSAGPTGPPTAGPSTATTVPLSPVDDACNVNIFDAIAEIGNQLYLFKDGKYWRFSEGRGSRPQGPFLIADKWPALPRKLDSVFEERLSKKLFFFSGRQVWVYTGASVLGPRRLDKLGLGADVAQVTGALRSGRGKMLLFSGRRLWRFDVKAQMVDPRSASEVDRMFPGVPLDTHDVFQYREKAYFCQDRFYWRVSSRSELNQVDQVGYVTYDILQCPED
Sequence of Stromelysin-1 (P08254 whole entry): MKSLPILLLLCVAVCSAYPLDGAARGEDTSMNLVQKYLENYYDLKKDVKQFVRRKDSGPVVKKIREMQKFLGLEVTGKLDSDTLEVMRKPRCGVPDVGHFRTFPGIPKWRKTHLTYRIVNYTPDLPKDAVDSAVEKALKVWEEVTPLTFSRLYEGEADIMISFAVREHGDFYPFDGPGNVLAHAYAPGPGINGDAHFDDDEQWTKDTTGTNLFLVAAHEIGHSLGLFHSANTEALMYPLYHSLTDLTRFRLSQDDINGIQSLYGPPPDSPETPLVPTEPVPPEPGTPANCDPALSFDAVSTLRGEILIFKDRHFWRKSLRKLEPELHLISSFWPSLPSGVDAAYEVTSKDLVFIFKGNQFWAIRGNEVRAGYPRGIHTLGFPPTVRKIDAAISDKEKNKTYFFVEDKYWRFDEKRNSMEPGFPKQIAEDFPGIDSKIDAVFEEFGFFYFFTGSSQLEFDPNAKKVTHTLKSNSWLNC

| SMILES | Ki (Stromelysin-1) [nM] | Ki [1] [nM] | IC50 (Homo sapiens) [nM] | Ki (Interstitial collagenase) [nM] |
| --- | --- | --- | --- | --- |
| CNC(=O)[C@@H]1Cc2ccc(cc2)OCCC[C@H](C(=O)NO)[C@@H](CC(C)C)C(=O)N1 | 32.7 | 1.8 | 1200 | 1.2 |
| CNC(=O)[C@@H](Cc1ccc(OC)cc1)NC(=O)[C@H](CC(C)C)[C@H](C)C(=O)NO | 1.93 | 0.13 | 1800 | 0.87 |
| CNC(=O)[C@@H]1CCCCNC(=O)CO[C@H](C(=O)NO)[C@@H](CC(C)C)C(=O)N1 | 24.1 | 2.6 | 6500 | 2.8 |
